Data reported in US20100069417A1, “NOVEL PHENYL(4-PHENYLPYRIMIDIN-2-YL)AMINE DERIVATIVES, THEIR PREPARATION, AS MEDICAMENTS, PHARMACEUTICAL COMPOSITIONS AND IN PARTICULAR AS IKK INHIBITORS” (SANOFI-AVENTIS, priority 2007, published 2010).

| Compound | melting point [°C] |
| --- | --- |
| CN(C1CCNCC1)S(=O)(=O)c1ccc(Nc2nccc(-c3ccc(F)cc3)n2)cc1 [Example 4, 4-[4-(4-Fluorophenyl)pyrimidin-2-ylamino]-N-methyl-N-(piperidin-4-yl)benzenesulphonamide] | 115.6 |
| NCCN(C1CCN(Cc2ccccc2)CC1)S(=O)(=O)c1ccc(Nc2nccc(-c3ccc(F)cc3)n2)cc1 [Example 5, N-(2-Aminoethyl)-N-(1-benzylpiperidin-4-yl)-4-[4-(4-fluorophenyl)-pyrimidin-2-ylamino]benzenesulphonamide] | 194.4 |

The next lines start with the values.

| melting point [°C] | Compound |
| --- | --- |
| 202.9 | CNC1CCN(S(=O)(=O)c2ccc(Nc3nccc(-c4ccc(F)cc4)n3)cc2)CC1 [Example 1, [4-(4-Fluorophenyl)pyrimidin-2-yl][4-(4-(methylamino)piperidin-1-ylsulphonyl)phenyl]amine] |
| 166.5 | CN(CCS(C)(=O)=O)C1CCN(S(=O)(=O)c2ccc(Nc3nccc(-c4ccc(F)cc4)n3)cc2)CC1 [Example 2, [4-(4-Fluorophenyl)pyrimidin-2-yl]-(4-{4-[(2-(methylsulphonyl)ethyl)(methyl)amino]piperidin-1-ylsulphonyl}phenyl)amine] |
| 140 | CN(Cc1ncc[nH]1)C1CCN(S(=O)(=O)c2ccc(Nc3nccc(-c4ccc(F)cc4)n3)cc2)CC1 [Example 3, [4-(4-Fluorophenyl)pyrimidin-2-yl]-(4-{4-[(1H-imidazol-2-ylmethyl) (methyl)amino]piperidin-1-ylsulphonyl}phenyl) amine] |
